Values of other authors as cited in patent US20190167675A1, “METHODS AND COMPOSITIONS FOR APPETITE CONTROL AND WEIGHT MANAGEMENT” (SHANGHAI YAO YUAN BIOTECHNOLOGY CO., LTD., priority 2016, published 2019).
Read-outs that look alike come from different tables or passages of the source.

Columns and labels:
[1] = biological target: T1, ASIC3 (Homo sapiens, UniProt Q9UHC3); details: cited from earlier work
T1 sequence (Q9UHC3 1-531): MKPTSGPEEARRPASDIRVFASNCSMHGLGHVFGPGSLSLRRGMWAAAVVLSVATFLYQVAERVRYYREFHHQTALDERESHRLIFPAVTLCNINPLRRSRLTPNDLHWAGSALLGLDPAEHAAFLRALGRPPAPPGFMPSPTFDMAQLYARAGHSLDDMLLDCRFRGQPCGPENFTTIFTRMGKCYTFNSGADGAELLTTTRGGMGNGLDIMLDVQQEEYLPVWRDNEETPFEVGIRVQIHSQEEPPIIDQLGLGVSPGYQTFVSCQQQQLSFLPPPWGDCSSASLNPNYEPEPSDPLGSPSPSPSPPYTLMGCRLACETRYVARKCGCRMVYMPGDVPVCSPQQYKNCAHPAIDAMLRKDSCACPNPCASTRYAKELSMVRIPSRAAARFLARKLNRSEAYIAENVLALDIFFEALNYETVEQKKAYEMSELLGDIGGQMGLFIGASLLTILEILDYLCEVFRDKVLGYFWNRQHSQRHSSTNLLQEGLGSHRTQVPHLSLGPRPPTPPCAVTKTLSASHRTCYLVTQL

[2] = system: ASIC3; details: in vivo; cited from earlier work
[3] = system: ENaC; details: dog AEC type II cells; cited from earlier work
[4] = biological target: T2, ENaC (Rattus norvegicus, UniProt P37089+P37090+P37091); details: rat AEC type II cells; cited from earlier work
T2 construct: amiloride-sensitive Na+ currents (via ENaC) in rat, dog, and pig AEC type II cells; endogenous in cells; host or cells: rat AEC type II cells
T2 sequence (P37089 1-698): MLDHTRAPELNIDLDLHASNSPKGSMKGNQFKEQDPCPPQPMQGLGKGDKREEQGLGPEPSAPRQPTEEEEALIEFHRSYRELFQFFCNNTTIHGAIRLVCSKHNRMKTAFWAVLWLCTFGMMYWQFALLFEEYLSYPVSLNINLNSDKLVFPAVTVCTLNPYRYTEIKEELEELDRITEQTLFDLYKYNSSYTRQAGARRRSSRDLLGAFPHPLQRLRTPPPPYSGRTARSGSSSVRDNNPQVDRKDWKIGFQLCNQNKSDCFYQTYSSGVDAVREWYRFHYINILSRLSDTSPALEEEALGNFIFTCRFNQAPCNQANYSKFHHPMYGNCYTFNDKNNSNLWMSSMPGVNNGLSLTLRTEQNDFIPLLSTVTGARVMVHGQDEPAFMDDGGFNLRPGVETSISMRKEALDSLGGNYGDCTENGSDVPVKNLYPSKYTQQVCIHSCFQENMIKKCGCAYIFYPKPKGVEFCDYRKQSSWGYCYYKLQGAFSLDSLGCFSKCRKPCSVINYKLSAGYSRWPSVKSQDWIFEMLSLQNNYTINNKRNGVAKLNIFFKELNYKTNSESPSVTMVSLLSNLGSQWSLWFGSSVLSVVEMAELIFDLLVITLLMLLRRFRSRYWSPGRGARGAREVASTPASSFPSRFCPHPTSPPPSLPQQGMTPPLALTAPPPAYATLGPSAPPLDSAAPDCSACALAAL
T2 sequence (P37090 1-638): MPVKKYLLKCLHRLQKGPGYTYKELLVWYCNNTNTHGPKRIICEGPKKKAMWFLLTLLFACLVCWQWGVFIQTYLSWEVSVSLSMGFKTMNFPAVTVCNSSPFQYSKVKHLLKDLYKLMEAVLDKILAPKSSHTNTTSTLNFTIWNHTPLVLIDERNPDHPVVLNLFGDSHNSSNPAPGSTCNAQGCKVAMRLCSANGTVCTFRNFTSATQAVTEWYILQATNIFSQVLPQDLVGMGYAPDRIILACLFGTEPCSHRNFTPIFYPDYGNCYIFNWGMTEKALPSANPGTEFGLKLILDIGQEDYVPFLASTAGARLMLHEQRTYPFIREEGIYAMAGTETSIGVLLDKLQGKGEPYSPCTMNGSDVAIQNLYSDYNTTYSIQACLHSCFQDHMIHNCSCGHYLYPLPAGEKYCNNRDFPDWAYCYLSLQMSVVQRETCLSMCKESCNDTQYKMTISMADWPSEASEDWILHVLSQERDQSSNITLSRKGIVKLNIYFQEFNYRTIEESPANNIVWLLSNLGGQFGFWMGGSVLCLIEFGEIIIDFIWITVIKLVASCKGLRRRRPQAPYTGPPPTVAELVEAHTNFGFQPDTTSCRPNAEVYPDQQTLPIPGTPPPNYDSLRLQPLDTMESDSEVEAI
T2 sequence (P37091 1-650): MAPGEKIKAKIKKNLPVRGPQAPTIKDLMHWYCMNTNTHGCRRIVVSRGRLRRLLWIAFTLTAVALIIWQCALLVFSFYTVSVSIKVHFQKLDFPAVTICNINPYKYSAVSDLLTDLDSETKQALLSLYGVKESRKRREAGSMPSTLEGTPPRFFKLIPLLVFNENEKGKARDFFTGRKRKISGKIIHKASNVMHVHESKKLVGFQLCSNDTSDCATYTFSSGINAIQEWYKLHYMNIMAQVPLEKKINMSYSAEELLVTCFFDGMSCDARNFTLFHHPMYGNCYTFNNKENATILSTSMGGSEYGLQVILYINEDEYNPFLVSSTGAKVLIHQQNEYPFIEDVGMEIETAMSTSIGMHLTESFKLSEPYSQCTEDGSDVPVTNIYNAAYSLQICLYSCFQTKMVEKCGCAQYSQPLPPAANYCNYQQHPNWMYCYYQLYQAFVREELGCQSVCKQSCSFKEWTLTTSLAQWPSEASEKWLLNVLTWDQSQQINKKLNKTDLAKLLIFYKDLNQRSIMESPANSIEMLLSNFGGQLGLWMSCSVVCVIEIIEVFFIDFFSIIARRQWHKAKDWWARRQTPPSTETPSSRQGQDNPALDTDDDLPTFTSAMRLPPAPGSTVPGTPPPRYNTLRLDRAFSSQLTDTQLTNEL

[5] = system: ENaC; details: pig AEC type II cells; cited from earlier work

Row | Compound | ASIC3 currents [1] | pain related behavior [2] | increase of amiloride-sensitive Na+ currents versus baseline [3] [fold] | increase of amiloride-sensitive Na+ currents versus baseline [4] | increase of amiloride-sensitive Na+ currents versus baseline [5] [fold]
1 | Cc1nc(NC(=N)N)nc2ccccc12 [GMQ, 2-guanidine-4-methylquinazoline] | induces persistent ASIC3 currents | induces pain related behavior | – | – | –
2 | AP301: ENaC activator; human TNF-α-derived cyclic peptide composed of 17 natural amino acids | – | – | ~13 | about 9 fold | ~16
